Consider 13 compounds from ChEMBL document CHEMBL3045848, “Microwave-assisted solvent-free synthesis of biologically active novel heterocycles from 3-formylchromones” (2011).

The source made the active and inactive calls. The calls are words filed in the database; no cut-off is given here.

The test system of assay [1] is Escherichia coli. Put plainly: Antibacterial activity against Escherichia coli K-12 at 30 ug/disc after 24 hr by filter paper disk method. It is filed as functional. The conditions noted are these: K-12, 24 h, read-out: DIZ.
For assay [2], the system named is Aspergillus fumigatus. Put plainly: Antifungal activity against Aspergillus fumigatus at 100 ug/ml after 72 hr. It is filed as functional. Conditions: for zone of inhibition at 100 µg/mL: read-out: DIZ.
A further assay concerns Candida albicans. Put plainly: Antifungal activity against Candida albicans IOA-109 at 100 ug/ml after 18 to 48 hr. It is filed as functional. Conditions: for zone of inhibition at 100 µg/mL: read-out: DIZ.
The subject of assay [3] is Bacillus subtilis. As to the kind of experiment: Antibacterial activity against Bacillus subtilis MTCC 121 at 30 ug/disk after 24 hr by filter paper disk method. It is filed as functional. Conditions: MTCC 121, 24 h, read-out: DIZ.
For assay [4], the system named is Salmonella typhimurium. Put plainly: Antibacterial activity against Salmonella enterica subsp. enterica serovar Typhimurium MTCC 98 at 30 ug/disc after 24 hr by filter paper disk method. It is filed as functional. The conditions noted are these: MTCC 98, 24 h, read-out: DIZ.
Assay [5] concerns Staphylococcus aureus. As to the kind of experiment: Antibacterial activity against Staphylococcus aureus SA 22 at 30 ug/disc after 24 hr by filter paper disk method. Conditions: SA 22, 24 h, read-out: DIZ. It is filed as functional.
Assay [6] concerns Aspergillus niger. As to the kind of experiment: Antifungal activity against Aspergillus niger at 100 ug/ml after 72 hr. It is filed as functional. The conditions noted are these: for zone of inhibition at 100 µg/mL: read-out: DIZ.
Assay [7] deals with Salmonella typhimurium. Put plainly: Antibacterial activity against Salmonella enterica subsp. enterica serovar Typhimurium MTCC 98 at 100 ug/ml after 24 hr by filter paper disk method. It is filed as functional. The conditions noted are these: for zone of inhibition at 100 µg/mL: MTCC 98, 24 h, read-out: DIZ.
The test system of assay [8] is Staphylococcus aureus. As to the kind of experiment: Antibacterial activity against Staphylococcus aureus SA 22 at 100 ug/ml after 24 hr by filter paper disk method. It is filed as functional. Conditions: for zone of inhibition at 100 µg/mL: SA 22, 24 h, read-out: DIZ.
Assay [9] relates to Escherichia coli. Put plainly: Antibacterial activity against Escherichia coli K-12 at 100 ug/ml after 24 hr by filter paper disk method. It is filed as functional. The conditions noted are these: for zone of inhibition at 100 µg/mL: K-12, 24 h, read-out: DIZ.
Assay [10] relates to Bacillus subtilis. Put plainly: Antibacterial activity against Bacillus subtilis MTCC 121 at 100 ug/ml after 24 hr by filter paper disk method. Conditions: for zone of inhibition at 100 µg/mL: MTCC 121, 24 h, read-out: DIZ. It is filed as functional.
Assay [11] deals with Aspergillus niger. Put plainly: Antifungal activity against Aspergillus niger at 30 ug/disk after 72 hr. It is filed as functional, organism-based.
Assay [12] relates to Aspergillus fumigatus. As to the kind of experiment: Antifungal activity against Aspergillus fumigatus at 30 ug/disk after 72 hr. It is filed as functional, organism-based.

`O=C(N[C@H](CO)[C@H](O)c1ccc([N+](=O)[O-])cc1)C(Cl)Cl` [CHLORAMPHENICOL]: the zone of inhibition at 30 µg/disc in the assay with Escherichia coli [1] is 25 mm; with Bacillus subtilis [3], 24 mm; in the assay on Salmonella typhimurium [4], 20 mm; in the assay on Staphylococcus aureus [5], 26 mm. In addition, the “diameter of the inhibition zone (DIZ)” value in the assay with Aspergillus fumigatus [2], in the assay with Candida albicans and with Aspergillus niger [6] was “inactive” each time.
On to `CN1C(=O)C(C2=NNC(c3coc4ccccc4c3=O)C2)C(=O)N(C)C1=O` (stereo not given), for which the zone of inhibition at 100 µg/mL with Salmonella typhimurium [7] is 12 mm; with Aspergillus fumigatus [2], 14 mm; in the assay on Candida albicans it was 14 mm; in the assay with Staphylococcus aureus [8], 16 mm; in the assay on Escherichia coli [9] it was 15 mm; in the assay with Aspergillus niger [6], 8 mm. Besides, the zone of inhibition at 100 µg/mL in the assay on Bacillus subtilis [10] came out at 13 mm.
As to `Cc1ccc2occ(/C=C/C(=O)C3C(=O)N(C)C(=O)N(C)C3=O)c(=O)c2c1`, the zone of inhibition at 100 µg/mL stood at 12 mm with Salmonella typhimurium [7]; 14 mm in the assay on Aspergillus fumigatus [2]; 12 mm in the assay on Candida albicans; 12 mm in the assay with Staphylococcus aureus [8]; 20 mm with Escherichia coli [9]; 12 mm with Aspergillus niger [6]. Further, the zone of inhibition at 100 µg/mL with Bacillus subtilis [10] came out at 16 mm.
In the case of `Cc1ccc2occ(C3CC(C4C(=O)N(C)C(=O)N(C)C4=O)=NN3)c(=O)c2c1` (stereo not given), the zone of inhibition at 100 µg/mL was found to be 10 mm in the assay on Salmonella typhimurium [7]; 10 mm with Aspergillus fumigatus [2]; 17 mm in the assay on Candida albicans; 11 mm with Staphylococcus aureus [8]; 12 mm in the assay with Escherichia coli [9]; 13 mm with Bacillus subtilis [10]. Besides, in the assay with Aspergillus niger [6], the “diameter of the inhibition zone (DIZ)” value is “inactive”.
As to `CN1C(=O)C(C2=NC(=O)NC(c3coc4ccccc4c3=O)C2)C(=O)N(C)C1=O` (stereo not given), the figures for the zone of inhibition at 100 µg/mL with Salmonella typhimurium [7], in the assay with Staphylococcus aureus [8] and in the assay on Escherichia coli [9] were 11 mm, 8 mm and 15 mm, respectively. Moreover, the “diameter of the inhibition zone (DIZ)” value in the assay on Aspergillus fumigatus [2], in the assay with Candida albicans, with Aspergillus niger [6] and with Bacillus subtilis [10] was “inactive” in each case.
With `Cc1ccc2occ(C3CC(C4C(=O)N(C)C(=O)N(C)C4=O)=NN3c3ccccc3)c(=O)c2c1` (stereo not given), the zone of inhibition at 100 µg/mL in the assay with Salmonella typhimurium [7] is 19 mm; in the assay with Candida albicans, 15 mm. The “diameter of the inhibition zone (DIZ)” value in the assay on Aspergillus fumigatus [2], in the assay with Staphylococcus aureus [8], with Escherichia coli [9], with Aspergillus niger [6] and with Bacillus subtilis [10] was “inactive” each time.
With `CN1C(=O)C(C2=NN(c3ccccc3)C(c3coc4ccccc4c3=O)C2)C(=O)N(C)C1=O` (stereo not given), the zone of inhibition at 100 µg/mL with Salmonella typhimurium [7] turned out to be 12 mm; with Aspergillus fumigatus [2] it was 12 mm; in the assay with Candida albicans, 15 mm; in the assay with Escherichia coli [9], 8 mm. For the same compound, the “diameter of the inhibition zone (DIZ)” value in the assay with Staphylococcus aureus [8], in the assay with Aspergillus niger [6] and in the assay with Bacillus subtilis [10] was “inactive” in each case.
Turning to `CN1C(=O)C(C(=O)/C=C/c2coc3ccccc3c2=O)C(=O)N(C)C1=O`, the zone of inhibition at 100 µg/mL with Salmonella typhimurium [7] is 16 mm; in the assay with Aspergillus fumigatus [2] it was 10 mm; with Candida albicans, 16 mm; in the assay with Staphylococcus aureus [8] it was 15 mm; with Escherichia coli [9], 20 mm; with Aspergillus niger [6], 8 mm. The zone of inhibition at 100 µg/mL in the assay on Bacillus subtilis [10] is 20 mm.
Regarding `CN1C(=O)C(C2=NN(c3nc4ccccc4s3)C(c3coc4ccccc4c3=O)C2)C(=O)N(C)C1=O` (stereo not given), the zone of inhibition at 100 µg/mL in the assay with Salmonella typhimurium [7] was 9 mm; in the assay with Candida albicans, 14 mm; in the assay with Staphylococcus aureus [8] it was 13 mm; in the assay on Escherichia coli [9], 18 mm; in the assay on Aspergillus niger [6], 14 mm; in the assay on Bacillus subtilis [10] it was 10 mm. Further, the “diameter of the inhibition zone (DIZ)” value with Aspergillus fumigatus [2] is “inactive”.
As for `CN1C(=O)C(c2cc(-c3coc4ccccc4c3=O)[nH]n2)C(=O)N(C)C1=O`, the zone of inhibition at 100 µg/mL with Salmonella typhimurium [7] worked out at 12 mm; in the assay on Staphylococcus aureus [8] it was 14 mm; with Escherichia coli [9] it was 12 mm; with Bacillus subtilis [10], 12 mm. The “diameter of the inhibition zone (DIZ)” value in the assay on Aspergillus fumigatus [2], with Candida albicans and with Aspergillus niger [6] was “inactive” in each case.
On to `CN1C(=O)C(C(=O)C(Br)C(Br)c2coc3ccccc3c2=O)C(=O)N(C)C1=O` (stereo not given), for which the zone of inhibition at 100 µg/mL in the assay on Salmonella typhimurium [7] is 16 mm; with Candida albicans, 15 mm; with Staphylococcus aureus [8], 8 mm; in the assay on Escherichia coli [9], 14 mm. The “diameter of the inhibition zone (DIZ)” value in the assay on Aspergillus fumigatus [2], in the assay on Aspergillus niger [6] and with Bacillus subtilis [10] was “inactive” throughout.
With NYSTATIN, the “diameter of the inhibition zone (DIZ)” value in the assay with Salmonella typhimurium [7], in the assay on Staphylococcus aureus [8], in the assay with Escherichia coli [9] and in the assay on Bacillus subtilis [10] was “inactive” in each case. Also, the inhibition zone (IZ) with Aspergillus niger [11] and in the assay with Aspergillus fumigatus [12] was 18 mm in each case.
Take `Cc1ccc2occ(C(Br)C(Br)C(=O)C3C(=O)N(C)C(=O)N(C)C3=O)c(=O)c2c1` (stereo not given): the zone of inhibition at 100 µg/mL with Salmonella typhimurium [7] amounted to 10 mm; with Candida albicans, 17 mm; in the assay on Staphylococcus aureus [8], 12 mm; in the assay with Escherichia coli [9], 15 mm. The “diameter of the inhibition zone (DIZ)” value in the assay with Aspergillus fumigatus [2], with Aspergillus niger [6] and with Bacillus subtilis [10] was “inactive” throughout.
